Results on nine compounds are retold here after patent US12583816B2, “Lipids for lipid nanoparticle delivery of active agents” (ACUITAS THERAPEUTICS, INC., priority 2018, dated 2026).

Data set [1] concerns luciferase expression in the liver. Nature of the data set: In vivo luciferase mRNA expression rodent model (lipid nanoparticle formulations, liver luciferase). The settings on record: LNP with FLuc mRNA, PEG-DMA; 0.5 mg mRNA/kg, tail vein injection, liver 4 hours after administration. More on the design: species or system mice. Here is the method: Lipid nanoparticles are prepared and tested according to the general procedures described in PCT Pub. Nos. WO 2015/199952 and WO 2017/004143, the full disclosures of which are incorporated herein by reference. Briefly, cationic lipid, DSPC, cholesterol and PEG-lipid are solubilized in ethanol at a molar ratio of about 50:10:38.5:1.5 or about 47.5:10:40.8:1.7. Lipid nanoparticles (LNP) are prepared at a total lipid to mRNA weight ratio of approximately 10:1 to 30:1. The mRNA is diluted to 0.2 mg/mL in 10 to 50 mM citrate or acetate buffer, pH 4. Syringe pumps are used to mix the ethanolic lipid solution with the mRNA aqueous solution at a ratio of about 1:5 to 1:3 (vol/vol) with total flow rates above 15 mL/min. The ethanol is then removed and the external buffer replaced with PBS by dialysis. Finally, the lipid nanoparticles are filtered through a 0.2 µm pore sterile filter. Lipid nanoparticle particle size is approximately 55-95 nm diameter, and in some instances approximately 70-90 nm diameter as determined by quasi-elastic light scattering using a Malvern Zetasizer Nano ZS (Malvern, UK).
Studies are performed in 6-8 week old female C57BL/6 mice (Charles River) or 8-10 week old CD-1 (Harlan) mice (Charles River) according to guidelines established by an institutional animal care committee (ACC) and the Canadian Council on Animal Care (CCAC). Varying doses of mRNA-lipid nanoparticle are systemically administered by tail vein injection and animals euthanized at a specific time point (e.g., 4 hours) post-administration. Liver and spleen are collected in pre-weighed tubes, weights determined, immediately snap frozen in liquid nitrogen and stored at −80° C. until processing for analysis.
For liver, approximately 50 mg is dissected for analyses in a 2 mL FastPrep tubes (MP Biomedicals, Solon OH). ¼″ ceramic sphere (MP Biomedicals) is added to each tube and 500 μL of Glo Lysis Buffer—GLB (Promega, Madison WI) equilibrated to room temperature is added to liver tissue. Liver tissues are homogenized with the FastPrep24 instrument (MP Biomedicals) at 2×6.0 m/s for 15 seconds. Homogenate is incubated at room temperature for 5 minutes prior to a 1:4 dilution in GLB and assessed using SteadyGlo Luciferase assay system (Promega). Specifically, 50 μL of diluted tissue homogenate is reacted with 50 μL of SteadyGlo substrate, shaken for 10 seconds followed by 5 minute incubation and then quantitated using a CentroXS^3 LB 960 luminometer (Berthold Technologies, Germany). The amount of protein assayed is determined by using the BCA protein assay kit (Pierce, Rockford IL). Relative luminescence units (RLU) are then normalized to total ug protein assayed. To convert RLU to ng luciferase a standard curve is generated with QuantiLum Recombinant Luciferase (Promega). […]

Data set [2] is described as follows: Determination of pKa of formulated lipids (TNS fluorescence assay in lipid nanoparticles). In kind it is physicochemical. The method, then: As described elsewhere, the pKa of formulated cationic lipids is correlated with the effectiveness of LNPs for delivery of nucleic acids (see Jayaraman et al, Angewandte Chemie, International Edition (2012), 51(34), 8529-8533; Semple et al, Nature Biotechnology 28, 172-176 (2010)). The preferred range of pKa is ˜5 to ˜7. […] Lipid nanoparticles comprising cationic lipid/DSPC/cholesterol/PEG-lipid (50/10/38.5/1.5 mol %) in PBS at a concentration of 0.4 mM total lipid are prepared using the in-line process as described in Example 1. TNS is prepared as a 100 μM stock solution in distilled water. Vesicles are diluted to 24 μM lipid in 2 mL of buffered solutions containing, 10 mM HEPES, 10 mM MES, 10 mM ammonium acetate, 130 mM NaCl, where the pH ranged from 2.5 to 11. An aliquot of the TNS solution is added to give a final concentration of 1 μM and following vortex mixing fluorescence intensity is measured at room temperature in a SLM Aminco Series 2 Luminescence Spectrophotometer using excitation and emission wavelengths of 321 nm and 445 nm. A sigmoidal best fit analysis is applied to the fluorescence data and the pKa was measured as the pH giving rise to half-maximal fluorescence intensity.

Where [3] appears, read: cationic lipid formulated in LNP (cationic lipid/DSPC/cholesterol/PEG-lipid 50/10/38.5/1.5 mol %), TNS fluorescence, pH giving half-maximal fluorescence, Table 2.
[4] abbreviates: formulated cationic lipid in LNP, TNS assay, Table 4.

Structures are written as SMILES.

For `CCCCCCCCC(CCCCCC)CN(CC(CCCCCC)CCCCCCCC)C(=O)CCCCN(C)C` (stereo not shown) [Compound I-1], the “Liver Luc @ 0.5 mg/kg (ng luc/g liver)” value in data set [1] is 206 ± 141 ng luc/g liver. Moreover, the pKa (in general, the pH at which an ionisable group is half protonated) in data set [2] (setting [3]) is 6.68. `CCCCCCCCC(CCCCCC)CN(CC(CCCCCC)CCCCCCCC)C(=O)CCCCCN(C)C` (stereo not shown) [Compound I-2]: the pKa in data set [2] (setting [3]) amounted to 7.42.

As for `CCCCCCCCC(CCCCCC)CN(CC(CCCCCC)CCCCCCCC)C(=O)CCCCN(CCO)CCO` (stereo not shown) [Compound I-3], the pKa in data set [2] (setting [3]) turned out to be 6.49. The same measure, in the same setting: under `CCCCCCCCC(CCCCCC)CN(CC(CCCCCC)CCCCCCCC)C(=O)CCCCNC(C)C` (stereo not shown) [Compound I-4] stands 8.15. For the compound `CCCCCCCCC(CCCCCC)CN(CC(CCCCCC)CCCCCCCC)C(=O)CCN(C)C` (stereo not shown) [Compound I-5], the “Liver Luc @ 0.5 mg/kg (ng luc/g liver)” value in data set [1] is listed as 1417 ± 390 ng luc/g liver. The compound further showed a pKa in data set [2] (setting [3]) of 6.25. On to `CCCCCCCCC(CCCCCC)CN(CC(CCCCCC)CCCCCCCC)C(=O)CCCCCCCCN(C)C` (stereo not shown) [Compound I-6], for which, in data set [2] (setting [3]), the pKa amounted to 7.15.

Regarding `CCCCCCCCC(CCCCCC)CN(CC(CCCCCC)CCCCCCCC)C(=O)CCCCCCCN(C)C` (stereo not shown) [Compound I-7], the pKa in data set [2] (setting [3]) stood at 7.23.

Take `CCCCCCCCC(CCCCCC)CN(CCCCCCCCCN(C)C)CC(CCCCCC)CCCCCCCC` (stereo not shown) [Compound I-8]: the “Liver Luc @ 0.5 mg/kg (ng luc/g liver)” value in data set [1] was found to be 1761 ± 598 ng luc/g liver. This compound also yielded a pKa in data set [2] (setting [4]) of 5.96. `CCCCCCCCC(CCCCCC)CN(CCCCCCCCN(C)C)CC(CCCCCC)CCCCCCCC` (stereo not shown) [Compound I-9]: the “Liver Luc @ 0.5 mg/kg (ng luc/g liver)” value in data set [1] was 341 ± 126 ng luc/g liver. For the same compound, the pKa in data set [2] (setting [4]) was found to be 5.85.
